{"source": "patent US5705649A", "about": "“Protein staining compositions and methods” (Promega Corporation, priority 1995, dated 1998)", "key": {"[1]": {"tested_on": "Promega Mid Range Molecular Weight Markers", "experiment": "Rapid enhancement of the staining of proteins with low residual color in the gel", "description": "In order to develop such a method, several 10% SDS-PAGE gels made as described in Example 5 were made and loaded with samples made as described therein with the following changes: the sample loading size was reduced to 5 μl; and the solutions were made to contain 1.0, 0.50, 0.25, and 0.125 μg of each protein band of Promega Mid Range Molecular Weight Markers in 5 μl of the sample. Each gel was loaded such that duplicate panels of samples containing the various concentrations of protein were present in 4 consecutive lanes. The gels were run as described above and the gel was cut between the duplicate sample panels. A gel segment containing one panel was placed in each of the following solutions: 30 ml of 2% glacial acetic acid (A); 30 ml of 2% glacial acetic acid in 10% methanol (B); 2% glacial acetic acid in 20% methanol (C); 2% glacial acetic acid in 30% methanol (D); 30 ml of water (E); 30 ml of 10% methanol (F); 30 ml of 20% methanol (G); and 30 ml of 30% methanol (H). The solutions were incubated with the gel segments for 10 minutes at room temperature and gently rotated at 40 rpm to prevent settling of the gel segments in the containers. […]\nProtocols using other dyes that have been developed for the sensitive detection of protein sometimes employ the incubation of the gel in solutions containing the stain followed by incubation of the gel in solutions lacking the stain. In order to determine if such a protocol could be used to allow even lower levels of protein to be detected using Promega Green 1, the following study was performed. […]"}, "[2]": {"tested_on": "protein (BSA)", "experiment": "Sensitive solution protein quantitation assay", "set-up": "species or system bovine", "settings": "0.5M tris base, 3 hours", "description": "In order to conclusively determine a format for the sensitive quantitation of protein in solution using Promega Green 1, Promega Green 1 stock solution was diluted at ratios of 1:250 (v/v) and 1:1000 (v/v) into 0.5M tris base containing 0, 5, 10, 20, 40, 60, 80, and 100 μg protein (BSA) per ml of solution. […]"}, "[3]": {"tested_on": "Promega Mid-Range Molecular Weight Standards", "experiment": "Quantitation of proteins separated by SDS-PAGE, sensitivity overall", "settings": "extracted bands", "description": "A 10% SDS-PAGE gel was made as described in the Example 5. Promega Mid-Range Molecular Weight Standards were diluted into loading buffer to produce solutions containing 2.0, 1.0, 0.5, and 0.25 μg of protein per band in 5 μl of solution. Duplicate 5 μl solutions of each of these solutions were loaded into 1 of the 10 sample wells in the gel after the solutions were heated at 95° C. for 10 minutes. The gel was then electrophoresed at 160 V until the running dye just eluted from the bottom of the gel. The gel was destained, and signal from stained protein enhanced, for 90 minutes in 30% methanol, 4% acetic acid.\nOne of the pair of duplicate bands for the 97.4, 66.2, 55.0 and 42.7 kilodalton standards from the lanes containing 2.0, 1.0, 0.5, and 0.25 μg of protein per band were excised with a razor blade as were two control gel segments from regions of the gel not containing protein. The excised segments were placed in individual 1.5 ml Eppendorf tubes containing 2% SDS and allowed to incubate at room temperature for 72 hours. After this time, the solutions were removed from the extracted segments and acetic acid was added to 2% (v/v) final concentration. The absorption of the solutions at […] was then measured."}, "[4]": {"tested_on": "Promega Mid-Range Molecular Weight Standards", "experiment": "In-situ staining of proteins during transfer to immobilizing supports", "description": "The use of immobilizing supports such as nitrocellulose, nylon, glass or polyvinyl difluoride has become very common in the immunochemical or sequence analysis of proteins. […] Two Whatman 3 mM sheets were soaked in transfer buffer and these components were then used to construct a transfer sandwich composed of one sheet of Whatman paper, the SDS-PAGE gel, the Immobilon sheet, and the final sheet of Whatman. The sandwich was placed in a Hoeffer transfer apparatus and oriented in the apparatus such that the Immobilon side of the sandwich was oriented toward the positive electrode. The apparatus was placed at 4° C. and 10 V were applied to the apparatus for 30 minutes then the voltage was increased to 30 V for an additional 120 minutes.\nThe Immobilon membrane was then soaked in 45% methanol, 5% acetic acid for 2 minutes."}}, "data": [{"smiles": "CCCCCCCC(=O)N(c1ccc(OCC)cc1)c1ccc(C(=C2C=CC(=[N+](CC)Cc3cccc(S(=O)(=O)[O-])c3)C=C2)c2ccc(N(CC)Cc3cccc(S(=O)(=O)O)c3)cc2)cc1", "note": "[Promega Green 1]", "values": [{"measurement": "amount of protein in a band that can be detected", "setting": "[1]; methanol/acetic acid solutions A-H, 10 min then 60 min", "result": "less than 125 ng"}, {"measurement": "lowest protein per band visible", "setting": "[1]; post-incubation with dye 1:5000 and 1:10,000 in 30-50% methanol, then without dye", "result": 62.5, "unit": "ng"}, {"measurement": "background staining", "setting": "[1]; solution set H (30% methanol, then 2% acetic acid in 30% methanol)", "result": "very little background staining remaining"}, {"measurement": "Absorption", "setting": "[2]; dye 1:250, protein 0 μg/ml", "result": 0.543}, {"measurement": "Absorption", "setting": "[2]; dye 1:250, protein 5 μg/ml", "result": 0.515}, {"measurement": "Absorption", "setting": "[2]; dye 1:250, protein 10 μg/ml", "result": 0.472}, {"measurement": "Absorption", "setting": "[2]; dye 1:250, protein 20 μg/ml", "result": 0.427}, {"measurement": "Absorption", "setting": "[2]; dye 1:250, protein 40 μg/ml", "result": 0.386}, {"measurement": "Absorption", "setting": "[2]; dye 1:250, protein 60 μg/ml", "result": 0.358}, {"measurement": "Absorption", "setting": "[2]; dye 1:250, protein 80 μg/ml", "result": 0.342}, {"measurement": "Absorption", "setting": "[2]; dye 1:250, protein 100 μg/ml", "result": 0.317}, {"measurement": "Absorption", "setting": "[2]; dye 1:1000, protein 0 μg/ml", "result": 0.079}, {"measurement": "Absorption", "setting": "[2]; dye 1:1000, protein 5 μg/ml", "result": 0.069}, {"measurement": "Absorption", "setting": "[2]; dye 1:1000, protein 10 μg/ml", "result": 0.059}, {"measurement": "Absorption", "setting": "[2]; dye 1:1000, protein 20 μg/ml", "result": 0.051}, {"measurement": "Absorption", "setting": "[2]; dye 1:1000, protein 40 μg/ml", "result": 0.048}, {"measurement": "Absorption", "setting": "[2]; dye 1:1000, protein 60 μg/ml", "result": 0.047}, {"measurement": "Absorption", "setting": "[2]; dye 1:1000, protein 80 μg/ml", "result": 0.044}, {"measurement": "Absorption", "setting": "[2]; dye 1:1000, protein 100 μg/ml", "result": 0.043}, {"measurement": "lowest amount of protein measured quantitatively", "setting": "[3]", "result": 250, "unit": "ng"}, {"measurement": "visibility of bands on membrane after enhancement", "setting": "[4]; 45% methanol, 5% acetic acid, 2 minutes", "result": "the protein band at all concentrations became easily visible"}, {"measurement": "lowest protein per band visible on Immobilon membrane after transfer", "setting": "[4]; before enhancement", "result": 1.0, "unit": "µg"}]}]}
